Experiments:
[1] = Metal complexation constants, Zn system; assay type: binding
Description: (§1) In a typical experiment, the sample solution was prepared by the following method: Apo6619 (31.91 mg) was weighed into a 25-ml beaker followed by the addition of 0.1 M NaCl (18.9 ml). The mixture was sonicated for 10 minutes to give a clear colorless solution. Aluminum stock solution (atomic absorption standard, Aldrich, 971 μl, 3.59×10^−5 mole) was pipetted into the solution followed by the addition of 1.000 N NaOH (229 μl) to give pH 8.56. The molar ratio between the total Aluminum and the total Apo6619 was 1:4. For M^2+ metals, a molar ratio of 1:3 was used. Nitrogen was allowed to bubble through the solution. The mixture was allowed to equilibrate at 22° C. for 2 hours. 1.000 N Hydrochloric acid (264 μl) was then added to the solution to give pH 2.20. The solution was allowed to equilibrate at 22° C. for 1 hour.
(§2) The solution was titrated against 1.000 N NaOH at 22° C. to reach pH 11.0. For each addition of base, the solution was allowed to equilibrate until a constant pH reading was reached. The volume of the base added and the pH reading were then recorded for each measurement. 93 measurements were used in the experiment.
(§3) The data set of pH vs. base volume was analyzed using Hyperquad 2000. Given the model: L^−+H^+ ? LH (pKa1), LH+H^+ ? LH2^+ (pKa2), Al^3++L^− ? ^AlL^2+ (K1), AlL^2++L^− ? AlL2^+ (K2), AlL2^++L^− ? AlL3 (K3), and β3=K1K2K3, the stepwise formation constants for Al-Apo6619 system were optimized as log K1=12.6(2); log K2=9.2(1); log K3=8.4(1); log β3=30.2(2).
(§4) pM^n+ is defined as −log [M(H2O)m]^n+ at physiological conditions, i.e.: pH 7.4, a ligand concentration of 10 μM, and a metal concentration of 1 μM.
(§5) To calculate pM^n+ for a MLn system, βn and pKa values are needed (βn are the formation constants for M^n++n L^− ? MLn; pKa are the equilibrium constants for L^−+n H^+ ? LHn^(n−1)+). The pM^n+ can be calculated by using Hyss software (Hyperquad Stimulation and Speciation software: HYSS2© 2000 Protonic Sofware).

[2] = Metal complexation constants, Mn system; assay type: binding
Description: as §1, §2, §3, §4, §5

[3] = Metal complexation constants, Ca system; assay type: binding
Description: as §1, §2, §3, §4, §5

[4] = Metal complexation constants, Al system (potentiometric titration; pM by Hyss); assay type: binding; conditions: pH 7.4, ligand 10 μM, metal 1 μM
Description: as §1, with “1.000 N Hydrochloric acid (264 μl) was then added to the solution to give pH 2.20. The solution was allowed to equilibrate at 22° C. for 1 hour.” left out
The solution was titrated against 1.000 N NaOH at 22° C. to reach pH 11.0. For each addition of base, the solution was allowed to equilibrate until a constant pH reading was reached. The volume of the base added and the pH reading were then recorded for each measurement. […]
The data set of pH vs. base volume was analyzed using Hyperquad 2000. […]
as §5

[5] = Metal complexation constants, Mg system; assay type: binding
Description: as §1, §2, §3, §4, §5

[6] = Metal complexation constants, Cu system; assay type: binding
Description: as §1, §2, §3, §4, §5

[7] = Drug Metab. Dispo. 1992; cited from earlier work
[8] = pH 7.4, ligand 10 μM, metal 1 μM

CNC(=O)c1c(O)c(=O)cc(C)n1C1CC1 [Apo6619, 1-Cyclopropyl-3-hydroxy-6-methyl-4-oxo-1,4-dihydro-pyridine-2-carboxylic Acid Methylamide]
log K1 Zn(II) ([1]; log scale): 6.3 | log K2 Zn(II) ([1]; log scale): 5.8 | log β2 Zn(II) ([1]; log scale): 12.1 | PM Zn(II) [1, 8]: 6.4 | log K1 Mn(II) ([2]; log scale): 5.1 | log K2 Mn(II) ([2]; log scale): 4.3 | log β2 Mn(II) ([2]; log scale): 9.4 | PM Mn(II) [2, 8]: 6.0 | log K1 Ca(II) ([3]; log scale): 3 | log K2 Ca(II) ([3]; log scale): 2.1 | log β2 Ca(II) ([3]; log scale): 5.1 | PM Ca(II) [3, 8]: 6.0 | PM Al(III) [4]: 13.9 | log K1 Mg(II) ([5]; log scale): 4.1 | log K2 Mg(II) ([5]; log scale): 3.2 | log β2 Mg(II) ([5]; log scale): 7.3 | PM Mg(II) [5, 8]: 6.0 | log K1 Cu(II) ([6]; log scale): 8.9 | log K2 Cu(II) ([6]; log scale): 7.7 | log β2 Cu(II) ([6]; log scale): 16.6 | PM Cu(II) [6, 8]: 10

Cc1c(O)c(=O)ccn1C [deferiprone, 1,2-dimethyl-3-hydroxy-4-pyridinone, reference compound]
administered dose recovered in the urine as the non-chelating O-glucuronide [7]: more than 85%
